Assay results: patent publication US20110190399A1 (priority 2008, published 2011)

Key:
hemozoin synthesis = test: In vivo inhibition of hemozoin synthesis in P. yoelii infected mice; details: oral, 3 days, curcumin fed bound to chitosan nanoparticles
Procedure: Infected mice were divided into 4 groups (each having 4 mice), namely: • 1. Control group which was further sub-divided into the infected control group, olive oil control group and chitosan control group • 2. Infected and fed with Chloroquinine (1.7 mg in 100 μl of normal saline/mouse/day orally) • 3. […] Infected and fed with Chitosan nanoparticles (200 micrograms of chitosan/day) orally
Red blood cells were purified on the third day of treatment. […] The cells were centrifuged at 10,000 g for 10 min, supernatant was discarded and the pellet washed in 1 ml of 0.1 M alkaline bicarbonate buffer (pH 9.2).

[1] = Effect on globulin level, eosinophils, neutrophils and platelet count of human volunteers; assay type: in vivo; details: 500 mg/day/person orally, 15 days
[2] = Effect on kidney function in human volunteers; assay type: in vivo; details: 500 mg/day/person orally
[3] = Effect on liver inflammation in human volunteers; assay type: in vivo; details: 500 mg/day/person orally, 15 days
Source text: Results of said tests are depicted in FIGS. 15.1-15.5.

[4] = Effect on fasting blood sugar levels in human volunteers; assay type: in vivo; details: 500 mg/day/person orally, 15 days
Source text: The results of the analysis are depicted in FIG. 11.

[5] = Effect on hemoglobin and RBC level of human volunteers; assay type: in vivo; details: 500 mg/day/person orally, 15 days

levels of eosinophiles, neutrophils and platelets [1] | serum creatinine, urea and potassium levels ([2]; human volunteers, before and after 15 days) | SMILES | hemozoin formation in vivo (hemozoin synthesis) | change in potassium level ([2]; human volunteers (7), 15 days) | change in serum creatinine and urea levels ([2]; human volunteers, 15 days) | ALP and Bilirubin levels [3] | adverse effect on liver function [3] | fasting glucose level [4] | blood hemoglobin and RBCs (anemic condition, RBC counts) [5]
– | – | CCN(CC)CCCC(C)Nc1ccnc2cc(Cl)ccc12 (stereo not shown) [chloroquine] | inhibited hemozoin formation in vivo | – | – | – | – | – | –
no significant effect | within the normal range | COc1cc(/C=C/C(=O)CC(=O)/C=C/c2ccc(O)c(OC)c2)ccc1O [curcumin, Curcumin] | inhibited hemozoin formation in vivo | increase | slight decrease | in the normal range except in one or two cases | do not have any adverse effect on liver function | not altered | no adverse effect
